Earlier results in patent US20230405024A1 (priority 2020, published 2023).

cannabidiol [CBD]
solubility in water: insoluble
